Drawing on paper PMC8519428, “Structural analysis of the boronic acid β-lactamase inhibitor vaborbactam binding to Pseudomonas aeruginosa penicillin-binding protein 3” (PLoS ONE, 2021), this text covers IC50 for 1 compound.

The assay deals with T1, penicillin-binding protein 3 (PBP3) (Pseudomonas aeruginosa, UniProt G3XD46).
T1 construct: gene ftsI; final PBP3 model contains residues 57–190, 213–490, and 501–561
Put plainly: X-ray crystal structure ([…] Å, soak); also Bocillin competition assay (IC50) and DSF thermal shift (about […] °C).

SMILES strings stand for the structures.

T1 sequence (G3XD46 50-579): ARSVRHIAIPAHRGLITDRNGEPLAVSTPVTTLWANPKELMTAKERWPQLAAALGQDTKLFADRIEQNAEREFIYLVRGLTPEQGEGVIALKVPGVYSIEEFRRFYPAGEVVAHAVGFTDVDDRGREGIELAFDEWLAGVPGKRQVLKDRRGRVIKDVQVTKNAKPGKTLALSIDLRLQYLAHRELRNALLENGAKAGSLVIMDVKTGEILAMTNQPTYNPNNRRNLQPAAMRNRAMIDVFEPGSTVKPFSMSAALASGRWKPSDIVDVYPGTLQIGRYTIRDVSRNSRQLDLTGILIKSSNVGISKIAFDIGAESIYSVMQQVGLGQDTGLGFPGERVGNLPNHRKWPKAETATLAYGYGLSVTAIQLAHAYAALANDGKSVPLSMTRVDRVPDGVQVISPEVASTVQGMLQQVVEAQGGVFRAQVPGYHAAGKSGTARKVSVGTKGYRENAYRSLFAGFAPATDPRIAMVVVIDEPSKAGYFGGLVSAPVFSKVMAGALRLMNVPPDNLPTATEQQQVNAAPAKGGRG

With `O=C(O)C[C@@H]1CC[C@H](NC(=O)Cc2cccs2)B(O)O1` [vaborbactam], the IC50 came out at 262 µM.

The IC50 is the concentration that gives 50% inhibition.
